What was measured:
[1] = test system: Entamoeba histolytica; assay: Antiamoebic activity against Entamoeba histolytica HM-1:IMSS trophozoites after 72 hrs by microdilution method; format: functional, organism-based
[2] = Cytotoxicity against human HepG2 cells assessed as cell viability at 100 uM after 48 hrs by MTT assay; format: cell-based; conditions: read-out: Activity
[3] = Cytotoxicity against human HepG2 cells assessed as cell viability up to 25 uM after 48 hrs by MTT assay; format: cell-based; conditions: read-out: Activity
[4] = Cytotoxicity against human HepG2 cells assessed as cell viability at 3.13 uM after 48 hrs by MTT assay; format: cell-based; conditions: read-out: Activity
[5] = test system: HepG2; assay: Cytotoxicity against human HepG2 cells assessed as cell viability at 50 to 100 uM after 48 hrs by MTT assay; format: cell-based; conditions: hepg2, 48 h
[6] = test system: HepG2; assay: Cytotoxicity against human HepG2 cells after 48 hrs by MTT assay; format: cell-based; conditions: for IC50: Homo sapiens, HepG2, 48 h; for Activity: human, hepg2, 48 h
[7] = Safety index, ratio of IC50 for human HepG2 cells to IC50 for Entamoeba histolytica HM-1:IMSS trophozoites

Row | Compound | IC50 ([1]; read-out: IC50) [µM] | IC50 ([1]; read-out: pIC50 (converted)) [µM] | other results
1 | Cc1ncc([N+](=O)[O-])n1CC(=O)N/N=C/c1ccccc1 | 4.28 | 4.29 | 
2 | CC(=O)N1N=C(Cn2c([N+](=O)[O-])cnc2C)OC1c1cc(C)ccc1C (stereo not drawn) | 4.38 | 4.39 | 
3 | CC(=O)N1N=C(Cn2c([N+](=O)[O-])cnc2C)OC1c1ccc(Cl)cc1 (stereo not drawn) | 5.4 | 5.41 | 
4 | CC(=O)N1N=C(Cn2c([N+](=O)[O-])cnc2C)OC1c1ccc(C(C)C)cc1 (stereo not drawn) | 4.88 | 4.89 | 
5 | CC(=O)N1N=C(Cn2c([N+](=O)[O-])cnc2C)OC1c1cccc(Cl)c1 (stereo not drawn) | 6.32 | 6.32 | 
6 | COc1cc(C2OC(Cn3c([N+](=O)[O-])cnc3C)=NN2C(C)=O)cc(OC)c1OC (stereo not drawn) | 5.82 | 5.82 | 
7 | CC(=O)N1N=C(Cn2c([N+](=O)[O-])cnc2C)OC1c1ccccc1 (stereo not drawn) | 9.82 | 9.84 | 
8 | COc1cc(/C=N/NC(=O)Cn2c([N+](=O)[O-])cnc2C)cc(OC)c1OC | 4.12 | 4.12 | 
9 | COc1ccc(OC)c(C2OC(Cn3c([N+](=O)[O-])cnc3C)=NN2C(C)=O)c1 (stereo not drawn) | 4.62 | 4.62 | 
10 | Cc1ncc([N+](=O)[O-])n1CCO [METRONIDAZOLE] |  |  | viability at 48 h, 100 µM [2]: ≥ 68%; viability at 48 h [3]: ≥ 88%; viability at 48 h, 3.13 µM [4]: 98%; Activity [5]: Non-toxic; IC50 [6]: > 100 µM; Activity [6]: Dose-dependent effect; selectivity ratio ([7]; hepg2): > 55.5
11 | CC(=O)N1N=C(Cn2c([N+](=O)[O-])cnc2C)OC1c1ccccc1Cl (stereo not drawn) | 6.84 | 6.85 | 
12 | Cc1ncc([N+](=O)[O-])n1CC(=O)N/N=C/c1ccccc1Cl | 3.86 | 3.86 | 

Now from value to compound, other results behind:

Row | IC50 ([1]; read-out: IC50) [µM] | IC50 ([1]; read-out: pIC50 (converted)) [µM] | Compound | other results
13 | 2.62 | 2.62 | CCc1ccc(C2OC(Cn3c([N+](=O)[O-])cnc3C)=NN2C(C)=O)cc1 (stereo not drawn) | 
14 | 0.81 | 0.811 | COc1ccc(/C=N/NC(=O)Cn2c([N+](=O)[O-])cnc2C)cc1 | viability at 48 h, 100 µM [2]: ≥ 68%; viability at 48 h [3]: ≥ 88%; viability at 48 h, 3.13 µM [4]: 98%; Activity [5]: Non-toxic; IC50 [6]: > 100 µM; Activity [6]: Dose-dependent effect; selectivity ratio ([7]; HepG2 cells): > 123
15 | 1.32 | 1.32 | CCc1ccc(/C=N/NC(=O)Cn2c([N+](=O)[O-])cnc2C)cc1 | viability at 48 h, 100 µM [2]: ≥ 68%; viability at 48 h [3]: ≥ 88%; viability at 48 h, 3.13 µM [4]: 98%; Activity [5]: Non-toxic; IC50 [6]: > 100 µM; Activity [6]: Dose-dependent effect; selectivity ratio ([7]; HepG2 cells): > 75.8
16 | 2.18 | 2.18 | COc1ccc(C2OC(Cn3c([N+](=O)[O-])cnc3C)=NN2C(C)=O)cc1 (stereo not drawn) | 
17 | 3.82 | 3.83 | Cc1ncc([N+](=O)[O-])n1CC(=O)N/N=C/c1cccc(Cl)c1 | 
18 | 3.68 | 3.68 | Cc1ncc([N+](=O)[O-])n1CC(=O)N/N=C/c1ccc(C(C)C)cc1 | 
19 | 0.96 | 0.962 | Cc1ccc(/C=N/NC(=O)Cn2c([N+](=O)[O-])cnc2C)cc1 | viability at 48 h, 100 µM [2]: ≥ 68%; viability at 48 h [3]: ≥ 88%; viability at 48 h, 3.13 µM [4]: 98%; Activity [5]: Non-toxic; IC50 [6]: > 100 µM; Activity [6]: Dose-dependent effect; selectivity ratio ([7]; HepG2 cells): > 104
20 | 2.64 | 2.64 | COc1ccc(OC)c(/C=N/NC(=O)Cn2c([N+](=O)[O-])cnc2C)c1 | 
21 | 2.32 | 2.32 | CCOc1ccc(C2OC(Cn3c([N+](=O)[O-])cnc3C)=NN2C(C)=O)cc1 (stereo not drawn) | 
22 | 1.65 | 1.65 | CCOc1ccc(/C=N/NC(=O)Cn2c([N+](=O)[O-])cnc2C)cc1 | viability at 48 h, 100 µM [2]: ≥ 68%; viability at 48 h [3]: ≥ 88%; viability at 48 h, 3.13 µM [4]: 98%; Activity [5]: Non-toxic; IC50 [6]: > 100 µM; Activity [6]: Dose-dependent effect; selectivity ratio ([7]; HepG2 cells): > 60.6
23 | 3.64 | 3.65 | Cc1ncc([N+](=O)[O-])n1CC(=O)N/N=C/c1ccc(Cl)cc1 | 
24 | 2.48 | 2.48 | CC(=O)N1N=C(Cn2c([N+](=O)[O-])cnc2C)OC1c1ccc(C)cc1 (stereo not drawn) | 
25 | 2.58 | 2.58 | Cc1ccc(C)c(/C=N/NC(=O)Cn2c([N+](=O)[O-])cnc2C)c1 | 

Reference: ChEMBL document CHEMBL2384949, “Nitroimidazolyl hydrazones are better amoebicides than their cyclized 1,3,4-oxadiazoline analogues: In vitro studies and Lipophilic efficiency analysis” (Eur J Med Chem, 2013)
